The target of the test is T1, Lyp-CCPGCC (lymphoid-specific protein tyrosine phosphatase, PTPN22, engineered insertion mutant) (Homo sapiens, UniProt Q9Y2R2, INS199CCPGCC).
T1 sequence (Q9Y2R2 with tags, fused parts or gaps INS199CCPGCC): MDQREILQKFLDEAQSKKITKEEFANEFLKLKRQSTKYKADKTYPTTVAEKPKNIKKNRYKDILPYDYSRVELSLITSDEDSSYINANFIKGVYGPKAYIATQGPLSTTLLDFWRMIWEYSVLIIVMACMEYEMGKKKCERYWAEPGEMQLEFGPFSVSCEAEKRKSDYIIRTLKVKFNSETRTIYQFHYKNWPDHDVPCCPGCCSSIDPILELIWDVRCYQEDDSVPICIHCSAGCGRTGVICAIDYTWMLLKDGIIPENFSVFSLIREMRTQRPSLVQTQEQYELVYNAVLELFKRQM
Kind of test: FlAsH fluorescence titration with purified Lyp-CCPGCC. The test is classed as binding.

As usually defined, the Kd is the equilibrium constant for the complex coming apart. High values mean weaker binding, low ones tighter binding.

For `O=C1OC2(c3ccccc31)c1ccc(O)c([As]3SCCS3)c1Oc1c2ccc(O)c1[As]1SCCS1` [FlAsH], the Kd was found to be 68 nM.

The record behind these values is publication PMC2915760 (Bioorganic & medicinal chemistry, 2010).
